From patent publication US5679708A, “Epoxysuccinic acid derivatives, their production and use” (Takeda Chemical Industries, Ltd., priority 1994, dated 1997) come the findings set out here.

As a reminder, the IC50 is the concentration needed to halve the response being measured. The inhibition is the relative decrease from the control value, in per cent.

Structures can show the parent of a compound that is named as a salt.

A short description of one data set: Toxicity study. It counts as in vivo. To be noted: rats, orally, 300 mg/kg. Here is the method: Compound 1 caused no death in rats when it was orally administered at 300 mg/kg.
The target in data set [1] is T1, human recombinant cathepsin L (Homo sapiens, UniProt P07711).
T1 construct: they were identified as a precursor of human cathepsin L and a product processed therefrom; made in house; host or cells: mouse myeloma Sp2/0 cells stably transformed with pTBN-HCLneo (Sp-HCL26); secreted, purified from serum-free culture supernatant
T1 sequence (P07711 114-333): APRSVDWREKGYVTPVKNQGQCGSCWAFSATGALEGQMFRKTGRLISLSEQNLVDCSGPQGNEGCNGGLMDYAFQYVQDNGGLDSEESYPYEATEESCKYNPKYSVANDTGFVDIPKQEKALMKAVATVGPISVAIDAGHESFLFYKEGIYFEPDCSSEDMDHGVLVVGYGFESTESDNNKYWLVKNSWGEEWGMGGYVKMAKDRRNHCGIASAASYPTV
The data set can be described thus: Determination of cathepsin L inhibitory activity. In kind it is biochemical. The note with it: human recombinant cathepsin L 1 ng; 20 μM Z-Phe-Arg-7MCA; pH 5.5; 37° C., 20 minutes; read-out: Inhibitory activity potency IC50 (Cathepsin L) (converted). Here is the method:
(a) Determination of cathepsin L inhibitory activity
To 75 μl of a reaction mixture containing 1 ng of human recombinant cathepsin L (those produced in Reference Examples 1 through 7 below were employed), 2 μM of dithiothreitol (hereinafter abbreviated as DTT), 1 mM of ethylenediaminetetraacetate disodium salt, 0.1M of a sodium acetate buffer solution (pH 5.5) and various concentrations of the sample, 25 μl of 20 μM benzyloxycarbonyl-L-phenylalanyl-L-arginine-4-methylcoumaryl-7-amide (hereinafter simply referred to as Z-Phe-Arg-7MCA, manufactured by Peptide Institute, Inc.) was added to initiate the reaction, and the reaction mixture was incubated at 37° C. for 20 minutes, followed by addition of 100 μl of a solution containing 100 mM of sodium monochloroacetate to suspend the reaction. The amount of liberated 4-methyl-7-aminocoumarin was determined at an excitation wavelength of 365 nm and a fluorescence wavelength of 450 nm, using a fluorophotometer (FCA: manufactured by Baxter Labs). The sample concentration required to cause 50% inhibition was expressed as the IC50 value, with the fluorescence value obtained from the same reaction in the absence of the sample taken as 100%.

Data set [2] concerns bone resorption as enhanced by PTH (parathyroid hormone). The data set can be described thus: Determination of bone resorption suppressive activity (PTH-enhanced, isolated mouse femur culture). It counts as cell-based, female BALB/c mice. The note with it: 168 h, test compound 10 μg/ml, PTH 1 μM, 7 days culture, total calcium content, 100x(Cp-Cs)/(Cp-Cc). Here is the method:
Further, the compound (I) of this invention or salts thereof have an excellent activity of suppressing bone resorption. Their suppressive action against bone resorption as enhanced by PTH (parathyroid hormone) was determined by the method described below. The results are shown in [Table 3].
Determination of bone resorption suppressive activity
Femurs were aseptically isolated from female BALB/c mice at 8-10 weeks of age. After the bone marrow cavity was washed with a Ham's F-12 medium containing 10% (w/w) thermally inactivated fetal calf serum, 100 unit/ml penicillin G and 100 unit/ml streptomycin (hereinafter referred to as culture broth), each femur was added to 1 ml of the culture broth and precultured for 3 hours at 37° C. in the presence of 5% carbon dioxide gas and 95% air. Each bone was transferred to 1 ml of the culture broth supplemented with PTH (produced by Peptide Institute, Inc., final concentration of 1 μM) and the test compound (final concentration 10 μg/ml (and cultured for 7 more days, after which the total calcium content in the culture broth was determined using Calcium E-Test Wako (manufactured by Wako Pure Chemical Industries, Ltd.). The bone resorption suppressive activity of the test compound was calculated using the following equation:
Bone resorption suppressive activity(%)=100x(Cp-Cs)/(Cp-Cc)
Cc: Total calcium content in the culture broth containing neither PTH nor test compound
Cp: Total calcium content in the culture broth containing PTH
Cs: Total calcium content in the culture broth containing both PTH and test compound

In a further data set the target is T2, cathepsin B (Homo sapiens, UniProt P07858).
T2 construct: purchased Sigma Chemical Co
The data set is described as follows: Determination of cathepsin B inhibitory activity. It counts as biochemical. The note with it: cathepsin B 30 ng (Sigma); 20 μM Z-Phe-Arg-7MCA; pH 5.5; 37° C., 20 minutes; read-out: Inhibitory activity potency IC50 (TABLE 2, head printed Cathepsin L) (converted). Here is the method: (b) Determination of cathepsin B inhibitory activity
To 75 μl of a reaction mixture containing 30 ng of cathepsin B (produced by Sigma Chemical Co.), 2 μM DTT, 1 mM ethylenediaminetetraacetate disodium salt, 0.1M sodium acetate buffer (pH 5.5) and various concentrations of the sample, 25 μl of 20 μM Z-Phe-Arg-7MCA was added to initiate the reaction, and the reaction mixture was incubated at 37° C. for 20 minutes, followed by addition of 100 μl of a solution containing 100 mM sodium monochloroacetate to suspend the reaction. The amount of liberated 4-methyl-7-aminocoumarin was determined at an excitation wavelength of 365 nm and a fluorescence wavelength of 450 nm, using a fluorophotometer. The sample concentration required to cause 50% inhibition was expressed as the IC50 value, with the fluorescence value obtained from the same reaction in the absence of the sample taken as 100%.

Take `CCOC(=O)[C@H]1O[C@@H]1C(=O)N[C@@H](Cc1ccccc1)C(=O)NCCCOC` [Compound 1, N-[N-[(2S,3S)-3-trans-ethoxycarbonyloxysirane-2-carbonyl]-L-phenylalanyl]-1-amino-3-methoxypropane]: the “death after oral administration” value in “Toxicity study” is listed as “no death”.

`COCCCNC(=O)[C@H](Cc1ccccc1)NC(=O)[C@H]1O[C@@H]1C(=O)O` [Compound 2, N-[N-[(2S,3S)-3-trans-carboxyoxirane-2-carbonyl]-L-phenylalanyl]-1-amino-3-methoxypropane monosodium salt]: in data set [1], the IC50 was 8.56 nM.

On to `O=C(NCCCO)[C@H](Cc1ccccc1)NC(=O)[C@H]1O[C@@H]1C(=O)O` [Compound 4, N-[N-[(2S,3S)-3-trans-carboxyoxirane-2-carbonyl]-L-phenylalanyl]-3-amino-1-propanol monosodium salt], for which the inhibition at 10 µg/mL in data set [2] was found to be 176%.

With `CC(=O)OCCCNC(=O)[C@H](Cc1ccccc1)NC(=O)[C@H]1O[C@@H]1C(=O)O` [Compound 6, N-[N-[(2S,3S)-3-trans-carboxyoxirane-2-carbonyl]-L-phenylalanyl]-3-amino-acetoxypropane monosodium salt], the IC50 in data set [1] was 13.2 nM. Besides, the inhibition at 10 µg/mL in data set [2] turned out to be 144%.

Turning to `CSCCCNC(=O)[C@H](Cc1ccccc1)NC(=O)[C@H]1O[C@@H]1C(=O)O` [Compound 8, N-[N-[(2S,3S)-3-trans-carboxyoxirane-2-carbonyl]-L-phenylalanyl]-1-amino-3-methylthiopropane monosodium salt], the IC50 in data set [1] was 8.19 nM; at cathepsin B, 5.46 nM. In data set [2], the inhibition at 10 µg/mL is 142%.
